Assay results as given in ChEMBL document CHEMBL1135758, “Toward a pharmacophore for drugs inducing the long QT syndrome: insights from a CoMFA study of HERG K(+) channel blockers” (J Med Chem, 2002).
pIC50: −log10 of the molar value.

Experiments:
[1] = target: T1, Voltage-gated inwardly rectifying potassium channel KCNH2 (Homo sapiens, UniProt Q12809); assay: (§1) K+ channel blocking activity in human embryonic kidney cells expressing HERG Kv11.1; format: functional, cell-based
[2] = target: T1, Voltage-gated inwardly rectifying potassium channel KCNH2; assay: K+ channel blocking activity in Chinese hamster ovary cells expressing HERG Kv11.1; format: functional, cell-based
[3] = target: T1, Voltage-gated inwardly rectifying potassium channel KCNH2; assay: as §1

T1 sequence (Q12809 whole entry): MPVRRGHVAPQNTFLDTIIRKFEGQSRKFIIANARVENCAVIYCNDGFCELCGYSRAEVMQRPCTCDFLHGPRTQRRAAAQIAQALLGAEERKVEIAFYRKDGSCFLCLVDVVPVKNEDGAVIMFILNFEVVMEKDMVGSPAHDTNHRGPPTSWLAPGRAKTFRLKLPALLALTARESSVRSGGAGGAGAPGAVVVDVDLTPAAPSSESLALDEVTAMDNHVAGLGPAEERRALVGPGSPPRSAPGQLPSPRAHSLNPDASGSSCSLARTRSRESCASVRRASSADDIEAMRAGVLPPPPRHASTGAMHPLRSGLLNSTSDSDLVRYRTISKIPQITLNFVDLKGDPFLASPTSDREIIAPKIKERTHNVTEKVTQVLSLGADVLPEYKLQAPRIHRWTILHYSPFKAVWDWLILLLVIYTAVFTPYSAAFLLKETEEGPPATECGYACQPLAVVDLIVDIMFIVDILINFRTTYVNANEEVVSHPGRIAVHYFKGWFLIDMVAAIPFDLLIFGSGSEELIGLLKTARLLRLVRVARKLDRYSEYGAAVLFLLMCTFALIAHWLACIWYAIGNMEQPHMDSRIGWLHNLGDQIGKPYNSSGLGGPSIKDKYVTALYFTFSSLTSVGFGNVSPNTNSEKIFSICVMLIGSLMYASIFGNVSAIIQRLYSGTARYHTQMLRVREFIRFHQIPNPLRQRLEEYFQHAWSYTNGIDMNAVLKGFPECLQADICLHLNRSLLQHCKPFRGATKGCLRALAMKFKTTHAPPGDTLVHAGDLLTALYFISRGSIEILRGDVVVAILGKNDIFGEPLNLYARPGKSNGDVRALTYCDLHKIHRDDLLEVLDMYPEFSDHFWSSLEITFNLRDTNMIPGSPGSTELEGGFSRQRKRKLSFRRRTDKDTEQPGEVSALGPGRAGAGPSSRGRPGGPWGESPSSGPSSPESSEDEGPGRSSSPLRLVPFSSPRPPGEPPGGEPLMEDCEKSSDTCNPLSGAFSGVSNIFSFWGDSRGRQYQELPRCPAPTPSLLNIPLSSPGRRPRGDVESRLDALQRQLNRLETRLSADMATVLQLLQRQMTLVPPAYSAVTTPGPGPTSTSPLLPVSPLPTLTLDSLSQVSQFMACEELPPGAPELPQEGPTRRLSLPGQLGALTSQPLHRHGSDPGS

Row | SMILES | pIC50 [2] | other results
1 | C[C@@H]1CN(c2c(F)c(N)c3c(=O)c(C(=O)O)cn(C4CC4)c3c2F)C[C@H](C)N1 [SPARFLOXACIN] | – | pIC50 [1]: 4.46
2 | COc1c(N2CCNC(C)C2)c(F)cc2c(=O)c(C(=O)O)cn(C3CC3)c12 (centres undefined) [GATIFLOXACIN] | 3.89 | –
3 | CN1CCN(CCCCN2C(=O)CN(/N=C/c3ccc(-c4ccc(Cl)cc4)o3)C2=O)CC1 [AZIMILIDE] | 6.25 | –
4 | CN(c1nccc(=O)[nH]1)C1CCN(c2nc3ccccc3n2Cc2ccc(F)cc2)CC1 [MIZOLASTINE] | – | pIC50 [3]: 6.46
